Data set [1] is described as follows: Plasma half-life in Sprague-Dawley rats. In kind it is ADME, organism-based. Conditions: rat.
In data set [2] the target is T1, Integrin alpha-4/beta-7 (Homo sapiens, UniProt P13612+P26010).
T1 sequence (P13612 whole entry): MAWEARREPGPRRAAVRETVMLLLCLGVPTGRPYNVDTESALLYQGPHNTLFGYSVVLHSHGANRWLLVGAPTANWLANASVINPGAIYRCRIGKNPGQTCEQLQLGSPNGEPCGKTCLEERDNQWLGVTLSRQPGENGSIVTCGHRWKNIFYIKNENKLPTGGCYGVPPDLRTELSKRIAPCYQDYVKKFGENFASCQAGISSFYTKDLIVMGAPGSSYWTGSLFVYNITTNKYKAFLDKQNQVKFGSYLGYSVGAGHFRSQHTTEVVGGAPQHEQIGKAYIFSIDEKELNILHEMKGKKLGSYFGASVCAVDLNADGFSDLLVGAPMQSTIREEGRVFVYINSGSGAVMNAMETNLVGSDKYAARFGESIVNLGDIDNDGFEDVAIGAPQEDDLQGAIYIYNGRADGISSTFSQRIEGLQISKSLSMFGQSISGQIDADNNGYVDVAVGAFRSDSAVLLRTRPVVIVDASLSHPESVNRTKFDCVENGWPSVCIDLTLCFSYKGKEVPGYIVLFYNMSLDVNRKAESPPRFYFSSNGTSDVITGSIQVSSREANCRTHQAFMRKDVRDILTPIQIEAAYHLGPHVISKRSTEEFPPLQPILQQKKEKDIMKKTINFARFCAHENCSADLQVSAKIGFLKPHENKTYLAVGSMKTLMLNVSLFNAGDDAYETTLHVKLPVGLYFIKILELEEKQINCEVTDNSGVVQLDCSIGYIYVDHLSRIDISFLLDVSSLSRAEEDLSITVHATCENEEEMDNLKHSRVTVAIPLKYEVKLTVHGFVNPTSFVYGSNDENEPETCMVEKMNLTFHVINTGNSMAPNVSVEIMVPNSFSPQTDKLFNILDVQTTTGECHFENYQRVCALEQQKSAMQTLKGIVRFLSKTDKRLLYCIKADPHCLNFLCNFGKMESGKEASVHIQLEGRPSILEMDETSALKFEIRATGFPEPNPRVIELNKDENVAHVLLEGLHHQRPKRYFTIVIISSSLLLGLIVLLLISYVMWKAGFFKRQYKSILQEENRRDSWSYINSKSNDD
T1 sequence (P26010 whole entry): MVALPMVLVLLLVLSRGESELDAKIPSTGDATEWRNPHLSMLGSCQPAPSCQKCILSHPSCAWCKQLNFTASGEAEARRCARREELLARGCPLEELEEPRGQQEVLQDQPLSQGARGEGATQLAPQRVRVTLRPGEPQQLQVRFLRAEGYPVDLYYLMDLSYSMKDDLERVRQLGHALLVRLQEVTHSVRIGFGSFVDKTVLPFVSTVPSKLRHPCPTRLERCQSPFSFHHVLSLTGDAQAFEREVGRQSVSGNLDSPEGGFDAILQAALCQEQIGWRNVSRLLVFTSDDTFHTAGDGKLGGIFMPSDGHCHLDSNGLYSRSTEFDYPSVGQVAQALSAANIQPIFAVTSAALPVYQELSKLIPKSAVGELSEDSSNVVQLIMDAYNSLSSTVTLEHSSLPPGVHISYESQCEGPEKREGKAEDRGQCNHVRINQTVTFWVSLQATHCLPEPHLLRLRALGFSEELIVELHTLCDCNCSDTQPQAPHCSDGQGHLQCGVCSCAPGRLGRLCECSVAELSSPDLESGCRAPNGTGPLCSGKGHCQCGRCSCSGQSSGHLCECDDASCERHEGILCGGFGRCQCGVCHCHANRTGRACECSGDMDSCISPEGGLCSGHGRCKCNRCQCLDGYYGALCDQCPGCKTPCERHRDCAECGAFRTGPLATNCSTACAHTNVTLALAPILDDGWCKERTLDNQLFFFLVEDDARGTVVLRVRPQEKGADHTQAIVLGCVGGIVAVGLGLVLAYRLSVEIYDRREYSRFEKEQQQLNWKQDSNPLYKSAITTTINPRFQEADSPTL
Briefly: Inhibition of [125I]VCAM-Ig binding to alpha4-beta7 integrin of human RPMI-8866 cells. In kind it is cell-based.

Data set [3] has as its target T2, Integrin alpha-4/beta-1 (Homo sapiens, UniProt P05556+P13612). Put plainly: Antagonistic activity against VLA-4 integrin of human jurkat cells using [125I]VCAM-Ig as radioligand. The format is functional, cell-based.
Data set [4] in a line: Plasma clearance in Sprague-Dawley rats. In kind it is ADME, organism-based. The conditions noted are these: rat, read-out: Clp.
Data set [5] can be described thus: Compound was tested for protein binding in human plasma. In kind it is ADME, cell-free. The conditions noted are these: read-out: Protein binding (converted).
Data set [6] can be described thus: Oral bioavailability in Sprague-Dawley rats. The format is ADME, organism-based. The conditions noted are these: rat, in vivo.
The nature of data set [7]: Oral bioavailability in rat (Sprague-Dawley) (dose 1 mg/kg i.v.). The format is ADME, organism-based. Conditions: in vivo.
The nature of data set [8]: Oral bioavailability in rat (Sprague-Dawley) (dose 2 mg/kg). Conditions: in vivo. The format is ADME, organism-based.
For data set [9], the target named is T2, Integrin alpha-4/beta-1. Put plainly: Inhibition of [125I]-VCAM-Ig binding to VLA-4 integrin of human Jurkat cells. The format is cell-based.
For data set [10], the target named is T1, Integrin alpha-4/beta-7. Briefly: Inhibition of [125I]MAdCAM-Ig binding to alpha4-beta7 integrin of human RPMI-8866 cells. In kind it is cell-based.
Data set [11] can be described thus: Plasma half-life in Beagle dogs. The conditions noted are these: dog. In kind it is ADME, organism-based, Canis lupus familiaris.
Data set [12] can be described thus: Plasma half-life in rhesus monkey. Conditions: cercopithecidae.
Data set [13] in a line: Plasma clearance in rhesus monkey. The format is ADME, organism-based. The conditions noted are these: cercopithecidae, read-out: Clp.
Data set [14] is described as follows: Plasma clearance in Beagle dogs. The format is ADME, organism-based, Canis lupus familiaris. The conditions noted are these: dog, read-out: Clp.
Data set [15] in a line: Compound was tested for protein binding in rat plasma. The format is ADME, organism-based. The conditions noted are these: read-out: Protein binding (converted).
For data set [16], the target named is T2, Integrin alpha-4/beta-1. Put plainly: Inhibition of [125I]VCAM-Ig binding to VLA-4 integrin of human Jurkat cells. The format is cell-based.

From ChEMBL document CHEMBL1133808, “The discovery of sulfonylated dipeptides as potent VLA-4 antagonists” (Bioorg Med Chem Lett, 2001) come the findings set out here.

The term half-life denotes how long it takes for the measured level to halve. What is called IC50 is the concentration that gives 50% inhibition. A word on the bioavailability: it is dose-corrected exposure relative to a reference, in per cent.

T2 sequence (P05556 whole entry, one chain of several): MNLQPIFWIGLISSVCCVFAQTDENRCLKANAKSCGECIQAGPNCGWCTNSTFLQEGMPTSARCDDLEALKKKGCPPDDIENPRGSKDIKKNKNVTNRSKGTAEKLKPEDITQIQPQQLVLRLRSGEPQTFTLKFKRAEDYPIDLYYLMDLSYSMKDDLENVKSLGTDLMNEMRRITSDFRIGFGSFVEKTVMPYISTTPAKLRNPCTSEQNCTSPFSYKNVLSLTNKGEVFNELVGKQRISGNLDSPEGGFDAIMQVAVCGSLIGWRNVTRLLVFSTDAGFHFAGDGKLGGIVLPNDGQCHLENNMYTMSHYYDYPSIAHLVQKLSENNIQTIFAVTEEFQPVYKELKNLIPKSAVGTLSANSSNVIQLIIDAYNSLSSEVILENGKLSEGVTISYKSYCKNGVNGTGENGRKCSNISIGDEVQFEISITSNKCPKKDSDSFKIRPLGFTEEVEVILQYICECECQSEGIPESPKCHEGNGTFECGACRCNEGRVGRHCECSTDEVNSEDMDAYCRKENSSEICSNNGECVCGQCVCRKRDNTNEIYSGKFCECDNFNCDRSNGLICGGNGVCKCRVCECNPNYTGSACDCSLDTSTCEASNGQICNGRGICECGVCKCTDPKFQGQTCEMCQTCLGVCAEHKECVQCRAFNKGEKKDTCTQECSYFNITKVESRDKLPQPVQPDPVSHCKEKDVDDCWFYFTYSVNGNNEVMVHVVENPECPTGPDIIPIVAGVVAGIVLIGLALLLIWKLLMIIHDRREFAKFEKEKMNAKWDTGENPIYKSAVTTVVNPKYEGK

`C[C@@]1(C(=O)N[C@@H](Cc2ccc(-c3ccccc3C(N)=O)cc2)C(=O)O)CCCN1S(=O)(=O)c1cc(Cl)cc(Cl)c1` gave a half-life in data set [1] of 1.1 h. The IC50 came to 24.3 nM in data set [2] and 0.14 nM in data set [3].

For `O=C(O)[C@H](Cc1ccc2ccccc2c1)NC(=O)[C@@H]1CCCN1S(=O)(=O)c1cc(Cl)cc(Cl)c1`, in data set [4], the clearance is 49 mL/min/kg. Besides, the fraction unbound in [5] was 0.004. The molecule also displayed a bioavailability in data set [6] of 15%. Further, in [1], the half-life was 0.6 h. For the same molecule, the IC50 in data set [3] was 0.5 nM.

As for `COc1ccccc1-c1ccc(C[C@H](NC(=O)[C@@H]2CCCN2S(=O)(=O)c2cc(Cl)cc(Cl)c2)C(=O)O)cc1`, the clearance in data set [4] came to 39 mL/min/kg. The bioavailability in data set [7] and in data set [8] was 3% in each case. In data set [3], the IC50 is 0.64 nM.

`COc1ccc(S(=O)(=O)N2Cc3ccccc3C[C@H]2C(=O)N[C@@H](CCC(=O)O)C(=O)O)cc1OC` had an IC50 in data set [9] of 257 nM.

As for `C[C@@]1(C(=O)N[C@@H](Cc2ccc(-c3ccccn3)cc2)C(=O)O)CCCN1S(=O)(=O)c1cc(Cl)cc(Cl)c1`, the clearance in data set [4] is 17 mL/min/kg. Moreover, in data set [1], the half-life is 1 h. The IC50 in [10] was 97.1 nM; in [3], 0.15 nM.

For the molecule `COc1cccnc1-c1ccc(C[C@H](NC(=O)[C@]2(C)CCCN2S(=O)(=O)c2cc(Cl)cc(Cl)c2)C(=O)O)cc1`, the clearance in data set [4] amounted to 71 mL/min/kg. For the same molecule, the half-life in data set [1] is 0.5 h. The IC50 in data set [10] stood at 52.5 nM; in [3], 0.11 nM.

For the molecule `C[C@@]1(C(=O)N[C@@H](Cc2ccc(-c3ccccc3C#N)cc2)C(=O)O)CCCN1S(=O)(=O)c1cc(Cl)cc(Cl)c1`, the half-life in data set [11] was 3.4 h; in data set [12], 5.3 h; in data set [1] it was 1.5 h. Moreover, the fraction unbound in data set [5] and in data set [15] was 0.005 each time. Moreover, the clearance was 12 mL/min/kg in [13] and 25 mL/min/kg in data set [14]. The IC50 was 345 nM in data set [2] and 0.92 nM in [3].

As to `N#Cc1ccccc1-c1ccc(C[C@H](NC(=O)[C@@H]2CCCN2S(=O)(=O)c2cc(Cl)cc(Cl)c2)C(=O)O)cc1`, in data set [4], the clearance was 21 mL/min/kg. Further, the bioavailability in data set [7] and in [8] was 4% each time. In [3], this molecule showed an IC50 of 0.46 nM.

Turning to `COc1cccc(OC)c1-c1ccc(C[C@H](NC(=O)[C@]2(C)CCCN2S(=O)(=O)c2cc(Cl)cc(Cl)c2)C(=O)O)cc1`, in [4], the clearance was over 100 mL/min/kg. In [1], this molecule gave a half-life of 2.2 h. Further, the IC50 was 2.98 nM in data set [2], 11.5 nM in data set [10] and 0.08 nM in [3].

In the case of `COc1cccc(OC)c1-c1ccc(C[C@H](NC(=O)[C@@H]2CCN2S(=O)(=O)c2cc(Cl)cc(Cl)c2)C(=O)O)cc1`, in data set [4], the clearance is over 100 mL/min/kg. The molecule further gave an IC50 in data set [10] of 10.6 nM.

For `CCCC[C@H](NC(=O)[C@@H]1Cc2ccccc2CN1S(=O)(=O)c1ccc(OC)c(OC)c1)C(=O)O`, the IC50 in data set [16] amounted to 58 nM.

In the case of `COc1cccc(OC)c1-c1ccc(C[C@H](NC(=O)[C@]2(C)CCN2S(=O)(=O)c2cc(Cl)cc(Cl)c2)C(=O)O)cc1`, in data set [4], the clearance was over 100 mL/min/kg. For the same molecule, the half-life in [1] was 1.5 h. Besides, the IC50 in [10] came out at 14.2 nM; in data set [3] it was 0.07 nM.
